Data on eleven compounds can be found in patent US20250296959A1, “B7-H3 TARGETING PEPTIDES AND CONSTRUCTS THEREOF” (Mariana Oncology Inc., priority 2024, published 2025).

Starred links: 1 amine or outer side, 2 acyl side, 3 side chain; linkers in the order of their positions; H or OH if unused. Positions of bridges follow the written chain, without caps; N, C: chain ends. Non-standard residues stand in square brackets, D forms with d. Residues, ends and D or L forms follow the SMILES beside them. *: point of attachment. X6 = CSCC[C@H](NC(=O)c1ccc(CNC(=O)CN2CCN(CC(=O)O)CCN(CC(=O)O)CCN(CC(=O)O)CC2)cc1)C(=O)N[C@H](C(=O)N[C@@H](CCCCN*)C(=O)O)C(C)C; Ala(piperidin-4-yl) = O=C([C@H](CC1CCN([*:3])CC1)N[*:1])[*:2]; DOTA = O=C(O)CN1CCN(CC(=O)O)CCN(CC(=O)*)CCN(CC(=O)O)CC1; X8 = O=C([C@H](C[C@H]1CC[C@@H](O)CC1)N[*:1])[*:2]; Phe(4-COOH) = N[C@@H](Cc1ccc(C(=O)O)cc1)C(=O)O; Trp(5-F) = N[C@@H](Cc1c[nH]c2ccc(F)cc12)C(=O)O; X1 = C[C@@H](c1ccccc1)[C@H](N[*:1])C(=O)[*:2]; PEG8 = NCCOCCOCCOCCOCCOCCOCCOCCOCCC(=O)O; 1Nal = N[C@@H](Cc1cccc2ccccc12)C(=O)O; Ala(4-THP) = N[C@@H](CC1CCOCC1)C(=O)O; Val(3-OH) = CC(C)(O)[C@H](N)C(=O)O; Pen = CC(C)(S)[C@H](N)C(=O)O; Tle = CC(C)(C)[C@H](N)C(=O)O; hLeu = CC(C)CC[C@H](N)C(=O)O; Nle = CCCC[C@H](N)C(=O)O; Orn = NCCC[C@H](N)C(=O)O; CH2 = C([*:1])[*:2]

The test has as its target T1, human 4lg B7-H3 (Homo sapiens, UniProt Q5ZPR3).
T1 sequence (Q5ZPR3 29-534): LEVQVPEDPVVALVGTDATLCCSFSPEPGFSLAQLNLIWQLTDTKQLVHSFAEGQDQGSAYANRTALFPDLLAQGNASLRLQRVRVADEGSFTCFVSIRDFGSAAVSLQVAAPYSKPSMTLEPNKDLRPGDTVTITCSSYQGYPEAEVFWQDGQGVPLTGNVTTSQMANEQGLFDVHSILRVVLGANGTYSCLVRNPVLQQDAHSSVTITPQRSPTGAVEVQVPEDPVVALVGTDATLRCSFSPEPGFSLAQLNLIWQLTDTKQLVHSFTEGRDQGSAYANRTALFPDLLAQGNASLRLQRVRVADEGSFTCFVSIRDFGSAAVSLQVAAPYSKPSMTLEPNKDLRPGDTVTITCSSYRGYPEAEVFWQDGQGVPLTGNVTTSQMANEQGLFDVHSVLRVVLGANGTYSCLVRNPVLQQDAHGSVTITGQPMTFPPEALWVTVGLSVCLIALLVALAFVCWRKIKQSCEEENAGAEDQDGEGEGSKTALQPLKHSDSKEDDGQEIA
As to the kind of experiment: Affinity determination by surface plasmon resonance (SPR) to 4Ig B7-H3. The note with it: 4Ig B7-H3.

[1] abbreviates: SPR KD—25° C., 25° C. flow cell temperature.
Setting [2] is: SPR KD—37° C., 37° C. flow cell temperature.

In the case of `CC(=O)N[C@@H](CCC(C)C)C(=O)N[C@@H](Cc1ccc(O)cc1)C(=O)N[C@H]1CSSC[C@@H](C(=O)N[C@@H](Cc2c[nH]c3ccc(F)cc23)C(=O)N[C@@H](Cc2ccccc2)C(=O)N2CCC[C@H]2C(=O)N[C@H](CCCCNC(=O)CN2CCN(CC(=O)O)CCN(CC(=O)O)CCN(CC(=O)O)CC2)C(=O)O)NC(=O)[C@H](Cc2ccc(O)cc2)NC(=O)[C@H](C(C)C)NC(=O)[C@H](CC(=O)O)NC(=O)[C@H](CC2CCOCC2)NC(=O)[C@H](CCCN)NC(=O)CNC(=O)[C@H](C(C)(C)C)NC1=O` [compound 312, Ac-hLeu-Y-C-Tbg-G-Orn-ThpA-D-V-Y-C-5FW-F-Pro-dLys(DOTA)-COOH] (Ac-[hLeu]YC[Tle]G[Orn][Ala(4-THP)]DVYC[Trp(5-F)]FP[dK](DOTA)-OH; disulfide 3-11), the Kd under setting [1] was in the range of 1 to 10 nM.

For `CCCC[C@@H]1NC(=O)[C@@H](NC(=O)[C@H](Cc2ccc(O)cc2)NC(=O)[C@H](CCC(C)C)NC(C)=O)CSSC[C@@H](C(=O)N[C@@H](Cc2c[nH]c3ccc(F)cc23)C(=O)N[C@@H](Cc2ccccc2)C(=O)N[C@H](C(=O)N[C@H](CCCCNC(=O)CN2CCN(CC(=O)O)CCN(CC(=O)O)CCN(CC(=O)O)CC2)C(N)=O)[C@@H](C)O)NC(=O)[C@H](Cc2ccc(O)cc2)NC(=O)[C@H](C(C)C)NC(=O)[C@H](CC(=O)O)NC(=O)[C@H](Cc2ccc(O)cc2)NC(=O)[C@H](CCCCN)NC(=O)CNC1=O` [compound 217, Ac-hLeu-Y-C-Nle-G-K-Y-D-V-Y-C-5FW-F-Thr-dLys(DOTA)-CONH2] (Ac-[hLeu]YC[Nle]GKYDVYC[Trp(5-F)]FT[dK](DOTA)-NH2; disulfide 3-11), the Kd under setting [1] lay in the range of 1 to 10 nM.

Regarding `CC(=O)N[C@@H](CCC(C)C)C(=O)N[C@@H](Cc1ccc(O)cc1)C(=O)N[C@H]1CSSC[C@@H](C(=O)N[C@@H](Cc2c[nH]c3ccc(F)cc23)C(=O)N[C@H](C(=O)N[C@H](C(=O)N[C@H](CCCCNC(=O)CN2CCN(CC(=O)O)CCN(CC(=O)O)CCN(CC(=O)O)CC2)C(N)=O)C(C)(C)O)[C@@H](C)c2ccccc2)NC(=O)[C@H](Cc2ccc(O)cc2)NC(=O)[C@H](C(C)C)NC(=O)[C@H](CC(=O)O)NC(=O)[C@H](CC2CCOCC2)NC(=O)[C@H](CC2CCNCC2)NC(=O)CNC(=O)[C@H](C(C)(C)C)NC1=O` [compound 502, Ac-hLeu-Y-C-Tbg-G-PipAla-ThpA-D-V-Y-C-5FW-[(2S, 3S)beta-Me-Phe]-hydroxyVal-dLys(DOTA)-CONH2] (Ac-[hLeu]YC[Tle]G[Ala(piperidin-4-yl)][Ala(4-THP)]DVYC[Trp(5-F)][X1][Val(3-OH)][dK](DOTA)-NH2; disulfide 3-11), the Kd under setting [2] is below 1 nM.

As to `CCCC[C@H](NC(C)=O)C(=O)N[C@@H](Cc1ccc(O)cc1)C(=O)N[C@H]1CSSC[C@@H](C(=O)N[C@@H](Cc2c[nH]c3ccccc23)C(=O)N[C@@H](Cc2ccccc2)C(=O)N[C@H](C(=O)N[C@H](CCCCNC(=O)CN2CCN(CC(=O)O)CCN(CC(=O)O)CCN(CC(=O)O)CC2)C(N)=O)[C@@H](C)O)NC(=O)[C@H](Cc2ccc(O)cc2)NC(=O)[C@H](C(C)C)NC(=O)[C@H](CC(=O)O)NC(=O)[C@H](Cc2ccc(O)cc2)NC(=O)[C@H](CCCC)NC(=O)CNC(=O)[C@H](C(C)C)NC1=O` [compound 66, Ac-Nle-Y-C-V-G-Nle-Y-D-V-Y-C-W-F-Thr-dLys(DOTA)-CONH2] (Ac-[Nle]YCVG[Nle]YDVYCWFT[dK](DOTA)-NH2; disulfide 3-11), the Kd under setting [1] was 10 to 100 nM.

Take `CCCC[C@@H]1NC(=O)[C@H](C(C)C)NC(=O)[C@H](CC(=O)O)NC(=O)[C@H](Cc2ccc(C(=O)O)cc2)NC(=O)[C@H](CCCCN)NC(=O)CNC(=O)[C@H](C(C)C)NC(=O)[C@@H](NC(=O)[C@H](Cc2ccc(O)cc2)NC(=O)[C@H](CCC(C)C)NC(C)=O)CSSC[C@@H](C(=O)N[C@@H](Cc2c[nH]c3ccc(F)cc23)C(=O)N[C@@H](Cc2ccccc2)C(=O)N2CCC[C@H]2C(=O)N[C@H](CCCCNC(=O)CN2CCN(CC(=O)O)CCN(CC(=O)O)CCN(CC(=O)O)CC2)C(N)=O)NC1=O` [compound 287, Ac-hLeu-Y-C-V-G-K-4COOHPhe-D-V-Nle-C-5FW-F-Pro-dLys(DOTA)-CONH2] (Ac-[hLeu]YCVGK[Phe(4-COOH)]DV[Nle]C[Trp(5-F)]FP[dK](DOTA)-NH2; disulfide 3-11): the Kd under setting [1] is 10 to 100 nM.

As to `CC(C)CC[C@H](NC(=O)CCOCCOCCOCCOCCOCCOCCOCCOCCNC(=O)CN1CCN(CC(=O)O)CCN(CC(=O)O)CCN(CC(=O)O)CC1)C(=O)N[C@@H](Cc1ccc(O)cc1)C(=O)N[C@H]1CSSC[C@@H](C(=O)N[C@@H](Cc2c[nH]c3ccc(F)cc23)C(=O)N[C@@H](Cc2ccccc2)C(=O)N2CCC[C@H]2C(N)=O)NC(=O)[C@H](Cc2ccc(O)cc2)NC(=O)[C@H](C(C)C)NC(=O)[C@H](CC(=O)O)NC(=O)[C@H](Cc2ccc(C(=O)O)cc2)NC(=O)[C@H](CC2CCNCC2)NC(=O)CNC(=O)[C@H](C(C)C)NC1=O` [compound 285, DOTA-PEG8-hLeu-Y-C-V-G-PipAla-4COOHPhe-D-V-Y-C-5FW-F-Pro-CONH2] ({DOTA-PEG8}-[hLeu]YCVG[Ala(piperidin-4-yl)][Phe(4-COOH)]DVYC[Trp(5-F)]FP-NH2; disulfide 3-11), under setting [1], the Kd lay in the range of 1 to 10 nM.

In the case of `CSCC[C@H](NC(=O)c1ccc(CNC(=O)CN2CCN(CC(=O)O)CCN(CC(=O)O)CCN(CC(=O)O)CC2)cc1)C(=O)N[C@H](C(=O)N[C@@H](CCCCNC(=O)CC[C@@H]1NC(=O)[C@H](CC2CCNCC2)NC(=O)CNC(=O)[C@H](C(C)(C)C)NC(=O)[C@@H](NC(=O)[C@H](Cc2ccc(O)cc2)NC(=O)[C@H](CCC(C)C)NC(C)=O)CSSC[C@@H](C(=O)N[C@@H](Cc2c[nH]c3ccc(F)cc23)C(=O)N[C@H](C(=O)N[C@H](C(=O)N[C@H](CO)C(=O)O)C(C)(C)O)[C@@H](C)c2ccccc2)NC(=O)[C@H](Cc2ccc(O)cc2)NC(=O)[C@H](C(C)C)NC(=O)[C@H](CC(=O)O)NC1=O)C(=O)O)C(C)C` [Cpd #518, Ac-hLeu-Y-C-Tbg-G-PipAla-Glu[&Lys(OH)-Val-Met-AmBz-DOTA]-D-V-Y-C-5FW-[(2S, 3S)beta-Me-Phe]-hydroxyVal-dSer-COOH] (Ac-[hLeu]YC[Tle]G[Ala(piperidin-4-yl)]E(X6)DVYC[Trp(5-F)][X1][Val(3-OH)][dS]-OH; disulfide 3-11), the Kd under setting [2] is below 1 nM.

For the compound `CC(=O)N[C@@H](CCC(C)C)C(=O)N[C@@H](Cc1ccc(O)cc1)C(=O)N[C@H]1CSSC[C@@H](C(=O)N[C@@H](Cc2cccc3ccccc23)C(=O)N[C@@H](Cc2ccccc2)C(=O)N2CCC[C@H]2C(=O)N[C@H](CCCCNC(=O)CN2CCN(CC(=O)O)CCN(CC(=O)O)CCN(CC(=O)O)CC2)C(N)=O)NC(=O)[C@H](Cc2ccc(O)cc2)NC(=O)[C@H](C(C)C)NC(=O)[C@H](CC(=O)O)NC(=O)[C@H](Cc2ccc(O)cc2)NC(=O)[C@H](CCCCN)NC(=O)CNC(=O)[C@H](C(C)C)NC1=O` [compound 245, Ac-hLeu-Y-C-V-G-K-Y-D-V-Y-C-1Nal-F-Pro-dLys(DOTA)-CONH2] (Ac-[hLeu]YCVGKYDVYC[1Nal]FP[dK](DOTA)-NH2; disulfide 3-11), the Kd under setting [1] lay within 1 to 10 nM.

`CC(=O)N[C@@H](CCC(C)C)C(=O)N[C@@H](Cc1ccc(O)cc1)C(=O)N[C@H]1CSCSC[C@@H](C(=O)N[C@@H](Cc2c[nH]c3ccc(F)cc23)C(=O)N[C@@H](Cc2ccccc2)C(=O)N[C@H](C(=O)N[C@H](CCCCNC(=O)CN2CCN(CC(=O)O)CCN(CC(=O)O)CCN(CC(=O)O)CC2)C(N)=O)[C@@H](C)O)NC(=O)[C@H](Cc2ccc(O)cc2)NC(=O)[C@H](C(C)C)NC(=O)[C@H](CC(=O)O)NC(=O)[C@H](Cc2ccc(O)cc2)NC(=O)[C@H](CCCCN)NC(=O)CNC(=O)[C@H](C(C)C)NC1=O` [compound 189, Ac-hLeu-Y-C(CH2)-V-G-K-Y-D-V-Y-C-5FW-F-Thr-dLys(DOTA)-CONH2] (Ac-[hLeu]YCVGKYDVYC[Trp(5-F)]FT[dK](DOTA)-NH2; linker 3-11 via CH2) came in with a Kd under setting [1] of 100 to 300 nM.

Compound `CC(=O)N[C@@H](CCC(C)C)C(=O)N[C@@H](Cc1ccc(O)cc1)C(=O)N[C@H]1CSSC[C@@H](C(=O)N[C@@H](Cc2c[nH]c3ccc(F)cc23)C(=O)N[C@@H](Cc2ccccc2)C(=O)N[C@H](C(=O)N[C@H](CCC(=O)O)C(N)=O)C(C)(C)O)NC(=O)[C@H](Cc2ccc(O)cc2)NC(=O)[C@H](C(C)C)NC(=O)[C@H](CC(=O)O)NC(=O)[C@H](C[C@H]2CC[C@@H](O)CC2)NC(=O)[C@H](CCCCNC(=O)CN2CCN(CC(=O)O)CCN(CC(=O)O)CCN(CC(=O)O)CC2)NC(=O)CNC(=O)[C@H](C(C)(C)C)NC1=O` [compound 424, Ac-hLeu-Y-C-Tbg-G-Lys(DOTA)-4OHCha(pk1)-D-V-Y-C-5FW-F-hydroxyVal-dGlu-CONH2] (Ac-[hLeu]YC[Tle]GK(DOTA)[X8]DVYC[Trp(5-F)]F[Val(3-OH)][dE]-NH2; disulfide 3-11) had a Kd under setting [2] of 1 to 10 nM.

In the case of `CC(=O)N[C@@H](CCC(C)C)C(=O)N[C@@H](Cc1ccc(O)cc1)C(=O)N[C@@H]1C(=O)N[C@@H](C(C)C)C(=O)NCC(=O)N[C@@H](CCCCN)C(=O)N[C@@H](Cc2ccc(O)cc2)C(=O)N[C@@H](CC(=O)O)C(=O)N[C@@H](C(C)C)C(=O)N[C@@H](Cc2ccc(O)cc2)C(=O)N[C@H](C(=O)N[C@@H](Cc2c[nH]c3ccccc23)C(=O)N[C@@H](Cc2ccccc2)C(=O)N[C@H](C(=O)N[C@H](CCCCNC(=O)CN2CCN(CC(=O)O)CCN(CC(=O)O)CCN(CC(=O)O)CC2)C(N)=O)[C@@H](C)O)CSSC1(C)C` [compound 117, Ac-hLeu-Y-Pen-V-G-K-Y-D-V-Y-C-W-F-Thr-dLys(DOTA)-CONH2] (Ac-[hLeu]Y[Pen]VGKYDVYCWFT[dK](DOTA)-NH2; disulfide 3-11), the Kd under setting [1] was 10 to 100 nM.
